What was measured:
FAR-1 = assay: Fluorescence titration, FAR•analyte complex formation in homogeneous solution; type: binding
Protocol: Fluorescence titrations were carried out in aqueous HEPES buffer (10 mM, pH 7, 22 °C) unless stated otherwise. To a solution of the FAR (typically at 10–30 μM) was stepwise added a solution of the analyte (typically up to 2 mM) and the fluorescence spectra were recorded. The normalized emissions at 450 nm (FAR-1) or at 370 nm (FAR-2) were fitted with an equation for a 1 : 1 binding by a least-square fit. The resulting affinity constants are reported in Supplementary Table 1. Representative titration plots are shown in Supplementary Fig. 1. Note that the high CB8-dye binding affinities correspond to a near quantitative degree of host-dye complexation, i.e., quantitative formation of the FAR, such that the subsequent binding of the analyte can be treated independently.

[1] = FARMA: permeation of analytes into FAR-loaded liposomes (fluorescence, cuvette or stopped-flow)
Description: Elementary physical parameters, such as permeability coefficients, can be extracted from the full kinetic FARMA data. This kinetic profile → parameter mapping requires some assumptions to be made in regard to the permeation mechanism. We applied a reported permeation model for liposomes[31] to arrive at permeation rate constants (kp) and apparent permeability coefficients (Papp). The derivation of the mathematical relation (1), linking the fundamental permeability rate constant and permeability coefficient to experimental measurable kobs rate constants, the known total analyte and total FAR concentration, and the experimentally determined liposome radius (r), is shown in the Supplementary Information.1 Papp=kp⋅r/3=kobs/canalyte⋅cFAR⋅r/3 […]
The volume-to-surface correction factor r/3 accounts for the fact that the observed rates depend on the size, i.e., radius r, of the liposomal assembly. […] The initial-rate method can also be applied, see the Supplementary Information. Moreover, kobs/canalyte can be estimated by single-point measurements at selected canalyte concentration.
A solution of 2.5 mg/mL of POPC and 0.33 mg/mL of POPS in chloroform was purged with nitrogen and dried overnight under […] vacuum. […] The resulting FAR-loaded liposomes were separated from non-encapsulated species by size-exclusion chromatography (NAP-25 column), while maintaining the same buffer. The absence of non-encapsulated FAR was confirmed by adding a non-membrane-permeable species such as tryptophan to a fluorescence cuvette containing 25 µL of liposomes diluted in 1 mL HEPES (10 mM) buffer. Complete removal of non-encapsulated FAR is indicated by the absence of a significant fluorescence change upon Trp addition.
In a typical experiment, 20 µL of liposome solution loaded with FAR was diluted in 1 mL HEPES buffer (10 mM, pH 7.0) in a 1 mL quartz cuvette. An emission spectrum was recorded after 10 min of “equilibration time” on a Varian Eclipse spectrofluorometer thermostated at 22 °C with a water bath using λexc = 400 nm for FAR-1, λexc = 310 nm for FAR-2, and λexc = 330 nm for FAR-3. In the time-resolved experiments, the emission intensity at λobs = 450 nm for FAR-1, λobs = 370 nm for FAR-2, and λobs = 370 and 500 nm for FAR-3 (the latter is the emerging excimer band for certain FAR-3•analyte complexes) was recorded with an averaging time of 0.5 s. […] For single-point experiments, a full spectrum was recorded after a fixed time or several time intervals after analyte addition. […] Only FAR-analyte combinations were used for FARMA, for which no significant autofluorescence and competitive light absorption of the analyte occurred.
For each experiment, measurements from 6 injections were accumulated and the average of these traces was used for data analysis.
Calculation of the unimolecular permeation rate constants ( kp) and of the apparent permeability coefficients (Papp).
The passive diffusion (permeation) of small non-charged compounds follows a modified Fick’s law and can be expressed by a first order kinetics.1 Similar to first order chemical reactions, the kinetics curve can therefore be fitted monoexponentially to obtained the observed permeation rates (kobs). In our assay set-up, such an exponential fit is an approximation, since it neglects that a certain fraction of transported analyte is bound to the FAR and cannot exit the liposome. Nevertheless, the fit of the kinetic curves of the […]
approximation is justified.

[2] = FAR-1, 10 mM HEPES buffer (pH 7), 1:1 binding model, error estimate ≤ 20%
[3] = monoexponential fit, analyte 40 µM (bulk), FAR-2 ca. 500 µM in the liposome interior, 20% error

## O=C1C=CC(=O)C=C1 [1,4-benzoquinone]
FAR-1; [2]
  Ka: 0.5 10^3 M−1

## O=P(O)(O)Oc1ccc2ccccc2c1 [2-naphthyl phosphate]
[1]; FARMA with FAR-loaded liposomes or GUVs
  membrane permeability (in words): membrane-impermeable

## Cc1ccccc1O [2Me-phenol, 2-methylphenol]
[1]; [3]
  kobs: 0.33 s–1
[1]; source data of Fig. 5
  kobs: 0.33
  log(kobs): -0.4815

## O=C(O)C(=O)Cc1ccc(O)cc1 [4-hydroxyphenylpyruvic acid]
FAR-1; [2]
  Ka: 17 10^3 M−1

## Nc1ccc(Br)cc1 [4Br-aniline, 4-bromoaniline]
[1]; [3]
  kobs: 4.0 s–1
[1]; source data of Fig. 5
  kobs: 4
  log(kobs): 0.6021

## N#Cc1ccc(N)cc1 [4CN-aniline, 4-cyanoaniline]
[1]; [3]
  kobs: 6.5 s–1
[1]; source data of Fig. 5
  kobs: 6.5
  log(kobs): 0.8129

## Nc1ccc(Cl)cc1 [4Cl-aniline, 4-chloroaniline]
[1]; [3]
  kobs: 4.0 s–1
[1]; source data of Fig. 5
  kobs: 4
  log(kobs): 0.6021

## Oc1ccc(Cl)cc1 [4Cl-phenol, 4-chlorophenol]
[1]; [3]
  kobs: 2.2 s–1
[1]; source data of Fig. 5
  kobs: 2.2
  log(kobs): 0.3424

## Nc1ccc(F)cc1 [4F-aniline]
[1]; [3]
  kobs: 4.4 s–1
[1]; source data of Fig. 5
  kobs: 4.4
  log(kobs): 0.6434

## Oc1ccc(F)cc1 [4F-phenol]
[1]; [3]
  kobs: 2.8 s–1
[1]; source data of Fig. 5
  kobs: 2.8
  log(kobs): 0.4472

## Nc1ccc(I)cc1 [4I-aniline]
[1]; [3]
  kobs: 3.1 s–1
[1]; source data of Fig. 5
  kobs: 3.1
  log(kobs): 0.4914

## Oc1ccc(I)cc1 [4I-phenol, 4-iodophenol]
[1]; [3]
  kobs: 0.69 s–1
[1]; source data of Fig. 5
  kobs: 0.69
  log(kobs): -0.1611

## O=[N+]([O-])c1ccc(O)cc1 [4NO2-phenol]
[1]; [3]
  kobs: 38 s–1
[1]; source data of Fig. 5
  kobs: 38
  log(kobs): 1.58

## N[C@@H](Cc1c[nH]c2ccc(O)cc12)C(=O)O [5HO-Trp, 5-hydroxy tryptophan]
FAR-1; [2]
  Ka: 7.7 10^3 M−1

## CN(C)c1ccc(C#N)cc1 [DMABN, 4-(N,N-dimethylamino) benzonitrile]
[1]; [3]
  kobs: 0.68 s–1
[1]; source data of Fig. 5
  kobs: 0.68
  log(kobs): -0.1675

## CC(=O)NC(Cc1c[nH]c2ccccc12)C(=O)O (stereo not shown) [NAc-Trp]
FAR-1; [2]
  Ka: 50 10^3 M−1

## c1ccccc1 [benzene]
FAR-1; [2]
  Ka: 4 10^3 M−1

## CC(C)(O/N=C(\C(=O)N[C@@H]1C(=O)N2C(C(=O)[O-])=C(C[n+]3ccccc3)CS[C@H]12)c1csc(N)n1)C(=O)O [ceftazidime, reference compound]
FAR-1; [2]
  Ka: < 1 10^3 M−1

## O=C(N[C@H](CO)[C@H](O)c1ccc([N+](=O)[O-])cc1)C(Cl)Cl [chloramphenicol, reference compound]
FAR-1; [2]
  Ka: < 1 10^3 M−1

## O=C(O)Cc1cc(O)ccc1O [homogentisic acid]
FAR-1; pH 7
  Ka: 0.14

## c1ccc2[nH]ncc2c1 [indazole]
[1]; [3]
  kobs: 2.4 s–1
[1]; source data of Fig. 5
  kobs: 2.4
  log(kobs): 0.3802

## COc1ccc2cc([C@H](C)C(=O)O)ccc2c1 [naproxen, reference compound]
FAR-1; [2]
  Ka: 2 10^3 M−1

## CC(=O)Nc1ccc(O)cc1 [paracetamol, reference compound]
FAR-1; [2]
  Ka: 7 10^3 M−1

## Nc1c(F)c(F)c(F)c(F)c1F [pentafluoroaniline]
[1]; [3]
  kobs: 0.51 s–1
[1]; source data of Fig. 5
  kobs: 0.51
  log(kobs): -0.2924

## CCCN(CCOc1c(Cl)cc(Cl)cc1Cl)C(=O)n1ccnc1 [prochloraz]
FAR-1; [2]
  Ka: 2.8 10^3 M−1

## c1ccc2ncccc2c1 [quinoline]
FAR-1; [2]
  Ka: 2.2 10^3 M−1
